Assay results published in patent US20260008775A1, “AZOLE MODULATORS OF CHOLESTEROL BIOSYNTHESIS AND THEIR USE FOR PROMOTING REMYELINATION” (GENENTECH, INC., priority 2022, published 2026).
Read-outs that look alike come from different tables or passages of the source.

Columns and labels:
[1] = molecular target: human emopamil binding protein and human 7-dehydrocholesterol reductase (hEBP-DHCR7) (Homo sapiens (Human), UniProt Q15125); assay: hEBP-DHCR7 radioligand binding assay (filter binding, membranes of co-expressing HEK293 cells); conditions: competition with [3H] radioligand, 8 doses 0.06 to 5000 nM, Ki calculated from IC50
Summary of the method: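 Membranes from HEK293 cells transiently co-expressing hEBP and DHCR7 (10 μg/well) were incubated for 3 h at 22 °C with tritiated spiro-sulfone radioligand (added at 25 nM) and compound at 1 μM or 0.06–5000 nM. Filtration and scintillation counting followed. Inhibition was normalised to 5 μM unlabelled ligand and DMSO, and Ki was derived as IC50/(1+[L]/Kd).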

[2] = tested on: zymostenol accumulation (EBP) in EpiSC-derived OPCs; assay: GC/MS-based sterol profiling, zymostenol accumulation in EpiSC-derived OPCs; assay type: cell-based, mouse; conditions: EpiSC-derived OPCs, 24 hr, 8 doses from 0.15 nM to 333 nM, read-out: Mouse Zymostenol GCMS EC50
Summary of the method: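 Mouse epiblast stem cell-derived OPCs plated at 100,000 cells/well in growth-factor-free N2B27 and treated 24 h. Sterols extracted by modified Folch wash, silylated with BSTFA, and quantified by electron-impact GC/MS against cholesterol-d7 (zymostenol ion 458). Zymostenol normalised to 24 h 100 nM positive-control reference.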

[3] = tested on: EpiSC-derived OPCs; assay: In vitro phenotypic screening of OPCs, MBP high-content imaging (percentage of oligodendrocytes); assay type: cell-based, mouse; conditions: 3 days, MBP stain, dose-response 0.5 nM to 1000 nM, read-out: OPC EC50
Summary of the method: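 Mouse epiblast stem cell-derived OPCs were plated without growth factors and given 8-point doses (1000 nM to 0.5 nM, 0.1% DMSO final) for 3 days at 37 °C. MBP/DAPI immunostaining and high-content imaging gave the percentage of oligodendrocytes. EC50 came from a Hill-equation fit.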

Sequence of human emopamil binding protein and human 7-dehydrocholesterol reductase (hEBP-DHCR7) (Q15125 whole entry): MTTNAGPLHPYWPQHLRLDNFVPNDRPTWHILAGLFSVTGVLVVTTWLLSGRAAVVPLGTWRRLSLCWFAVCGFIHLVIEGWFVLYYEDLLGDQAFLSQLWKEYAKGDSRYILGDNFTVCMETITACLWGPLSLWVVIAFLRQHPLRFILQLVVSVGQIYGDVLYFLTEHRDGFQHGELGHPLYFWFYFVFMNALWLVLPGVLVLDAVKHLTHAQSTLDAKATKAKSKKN

Ki [1] | EC50 ([2]; Mus musculus, 24 h) | EC50 ([3]; Mus musculus, 72 h) | EC50 [2] | EC50 [3] | Compound
43 nM | 46 nM | 145 nM | – | – | CC(C)n1nc(-c2ccc(C(F)(F)F)nc2)cc1[C@H]1[C@@H]2C[C@@H](N3CCCOCC3)C[C@@H]21 [Compound 47, 4-((1R,3S,5S,6R)-6-(1-Isopropyl-3-(6-(trifluoromethyl)pyridin-3-yl)-1H-pyrazol-5-yl)bicyclo[3.1.0]hexan-3-yl)-1,4-oxazepane]
25.1 nM | 3.58 nM | 29 nM | – | – | CC(C)n1nc([C@H]2CC[C@@H](C(F)(F)F)CC2)nc1[C@H]1[C@@H]2C[C@@H](N3CCOC[C@H]3C)C[C@@H]21 (single isomer, unassigned) [Compound 167*]
29.9 nM | 8.11 nM | 80.4 nM | – | – | CC(C)n1nc(-c2cc(C(F)(F)F)ccn2)nc1[C@@H]1CC[C@H](N2CCOCC2)C1 (single isomer, unassigned) [28*]
8.9 nM | – | – | 1.65 nM | 11.3 nM | CC(C)n1nc(-c2cccc(C(F)(F)F)c2)nc1[C@H]1CC[C@H](N2CCOCC2)C1 (single isomer, unassigned) [24*]
52.7 nM | 44.2 nM | 196 nM | – | – | CC(C)n1nc(-c2ccc(C(F)(F)F)nc2)nc1[C@H]1CC[C@H](N2CCCOCC2)C1 [Compound 5, 4-((1S,3S)-3-(1-isopropyl-3-(6-(trifluoromethyl)pyridin-3-yl)-1H-1,2,4-triazol-5-yl)cyclopentyl)-1,4-oxazepane]
15.5 nM | – | – | 13.1 nM | 132 nM | CC(C)n1nc(-c2cccc(C(F)(F)F)c2)nc1[C@H]1CC[C@H](N2CCOCC2)C1 (single isomer, unassigned) [23*]
19.7 nM | 22.5 nM | 125 nM | – | – | COCCN1CCN([C@@H]2CC[C@H](c3cc(-c4ccc(C(F)(F)F)nc4)nn3C(C)C)C2)CC1 (single isomer, unassigned) [93*]
120 nM | 64 nM | 63.8 nM | – | – | FC(F)(F)c1cccc(-c2nc([C@@H]3CC[C@H](N4CCCOCC4)C3)n(C3CC3)n2)n1 (single isomer, unassigned) [12*]
10.6 nM | 3 nM | 12.4 nM | – | – | CCn1nc(-c2cncc(C(F)(F)F)c2)cc1[C@H]1[C@@H]2C[C@H](N3CCCOCC3)C[C@@H]21 [Compound 54, 4-((1R,3r,5S,6r)-6-(1-ethyl-3-(5-(trifluoromethyl)pyridin-3-yl)-1H-pyrazol-5-yl)bicyclo[3.1.0]hexan-3-yl)-1,4-oxazepane]
40.4 nM | 4.55 nM | 35 nM | – | – | CC(C)n1nc([C@H]2CC[C@H](C(F)(F)F)CC2)nc1[C@H]1[C@@H]2C[C@@H](N3CCOC[C@H]3C)C[C@@H]21 (single isomer, unassigned) [Compound 165*]
1170 nM | 333 nM | 980 nM | – | – | CC(C)n1nc(-c2cccc(C(F)(F)F)n2)nc1[C@H]1[C@@H]2C[C@@H](N3CCOC[C@H]3C)C[C@@H]21 [Compound 72, (R)-4-((1R,3s,5S,6R)-6-(1-Isopropyl-3-(6-(trifluoromethyl)pyridin-2-yl)-1H-1,2,4-triazol-5-yl)bicyclo[3.1.0]hexan-3-yl)-3-methylmorpholine]
57.1 nM | 1.32 nM | 6 nM | – | – | CC[C@@H]1CN([C@@H]2CC[C@H](c3nc(-c4ccc(C(F)(F)F)nc4)nn3C(C)C)C2)CCO1 [Compound 127, (R)-2-Ethyl-4-((1R,3S)-3-(1-isopropyl-3-(6-(trifluoromethyl)pyridin-3-yl)-1H-1,2,4-triazol-5-yl)cyclopentyl)morpholine]
34.7 nM | 10.5 nM | 34.3 nM | – | – | CC(C)n1nc(-c2ccc(C(F)(F)F)nc2)nc1[C@H]1CC[C@@H](N2CCCOCC2)C1 [Compound 6, 4-((1R,3S)-3-(1-isopropyl-3-(6-(trifluoromethyl)pyridin-3-yl)-1H-1,2,4-triazol-5-yl)cyclopentyl)-1,4-oxazepane]
12 nM | 7.66 nM | 11.3 nM | – | – | CC(C)n1nc(-c2ccc(OC(F)(F)F)cc2)cc1[C@H]1[C@@H]2C[C@H](N3CCCOCC3)C[C@@H]21 [Compound 185*, 4-((1R,3r,5S,6r)-6-(1-Isopropyl-3-(4-(trifluoromethoxy)phenyl)-1H-pyrazol-5-yl)bicyclo[3.1.0]hexan-3-yl)-1,4-oxazepane]
7.29 nM | 5.41 nM | 7.12 nM | – | – | CC(C)n1nc(-c2ccccc2F)cc1[C@H]1[C@@H]2C[C@H](N3CCCOCC3)C[C@@H]21 [Compound 193*, 4-((1R,3r,5S,6r)-6-(3-(2-Fluorophenyl)-1-isopropyl-1H-pyrazol-5-yl)bicyclo[3.1.0]hexan-3-yl)-1,4-oxazepane]
13.1 nM | 1.73 nM | 18.3 nM | – | – | CC(C)n1nc(-c2cncc(C(F)(F)F)c2)cc1[C@@H]1CC[C@H](N2CCCOCC2)C1 (single isomer, unassigned) [62*]
15 nM | 1.18 nM | 1.56 nM | – | – | CC(C)n1nc(-c2cccc(OC(F)F)c2)nc1[C@H]1[C@@H]2C[C@H](N3CCOC[C@H]3C)C[C@@H]21 [Compound 76, (R)-4-((1R,3r,5S,6R)-6-(3-(3-(Difluoromethoxy)phenyl)-1-isopropyl-1H-1,2,4-triazol-5-yl)bicyclo[3.1.0]hexan-3-yl)-3-methylmorpholine]
325 nM | 5.7 nM | 48 nM | – | – | CC(C)n1nc(-c2cnc(C(F)(F)F)nc2)nc1[C@H]1CC[C@@H](N2CCO[C@H](C)C2)C1 [Compound 144, (R)-4-((1R,3S)-3-(1-isopropyl-3-(2-(trifluoromethyl)pyrimidin-5-yl)-1H-1,2,4-triazol-5-yl)cyclopentyl)-2-methylmorpholine]
9.73 nM | 1.85 nM | 4.81 nM | – | – | CC(C)n1nc(-c2ccc(C(F)(F)F)c(F)c2)nc1[C@@H]1CC[C@H](N2CCOCC2)C1 (single isomer, unassigned) [Compound 113*]
19.4 nM | 5.33 nM | 30.5 nM | – | – | CC(C)n1nc(-c2cncc(C(F)(F)F)c2)cc1[C@H]1[C@@H]2C[C@@H](N3CCOC(C)(C)C3)C[C@@H]21 [Compound 33, 4-((1R,3s,5S,6r)-6-(1-Isopropyl-3-(5-(trifluoromethyl)pyridin-3-yl)-1H-pyrazol-5-yl)bicyclo[3.1.0]hexan-3-yl)-2,2-dimethylmorpholine]
19.2 nM | 5.52 nM | 36.2 nM | – | – | CC(C)n1nc(-c2cncc(C(F)(F)F)c2)cc1[C@H]1CC[C@@H](N2CCOCC2)C1 (single isomer, unassigned) [60*]
27.9 nM | 8.19 nM | 27.3 nM | – | – | CC(C)n1nc(-c2cncc(OC(F)F)c2)nc1[C@H]1[C@@H]2C[C@H](N3CCCOCC3)C[C@@H]21 [Compound 69, 4-((1R,3r,5S,6r)-6-(3-(5-(Difluoromethoxy)pyridin-3-yl)-1-isopropyl-1H-1,2,4-triazol-5-yl)bicyclo[3.1.0]hexan-3-yl)-1,4-oxazepane]
20 nM | 3.19 nM | 19.8 nM | – | – | CC(C)n1nc(-c2cncc(C(F)(F)F)c2)cc1[C@H]1[C@@H]2C[C@H](N3CCCOCC3)C[C@@H]21 [Compound 29, 4-((1R,3s,5S,6r)-6-(1-Isopropyl-3-(5-(trifluoromethyl)pyridin-3-yl)-1H-pyrazol-5-yl)bicyclo [3.1.0]hexan-3-yl)-1,4-oxazepane]
12.7 nM | 13.3 nM | 46.2 nM | – | – | CC(C)n1nc(-c2cccc(F)c2)cc1[C@H]1[C@@H]2C[C@@H](N3CCCOCC3)C[C@@H]21 [Compound 196*, 4-((1R,3s,5S,6r)-6-(3-(3-fluorophenyl)-1-isopropyl-1H-pyrazol-5-yl)bicyclo[3.1.0]hexan-3-yl)-1,4-oxazepane]
18.1 nM | 3.1 nM | 6.29 nM | – | – | CC(C)n1nc(-c2cncc(C(F)(F)F)c2)nc1[C@H]1[C@@H]2C[C@@H](N3CCCOCC3)C[C@@H]21 [Compound 52, 4-((1R,3s,5S,6r)-6-(1-Isopropyl-3-(5-(trifluoromethyl)pyridin-3-yl)-1H-1,2,4-triazol-5-yl)bicyclo[3.1.0]hexan-3-yl)-1,4-oxazepane]
7.22 nM | 1.1 nM | 2.02 nM | – | – | CC(C)n1nc(-c2ccnc(C(F)(F)F)n2)cc1[C@H]1[C@@H]2C[C@H](N3CCOC[C@@H]3C)C[C@@H]21 [Compound 101, (S)-4-((1R,3r,5S,6S)-6-(1-Isopropyl-3-(2-(trifluoromethyl)pyrimidin-4-yl)-1H-pyrazol-5-yl)bicyclo[3.1.0]hexan-3-yl)-3-methylmorpholine]
41 nM | 30.5 nM | 108 nM | – | – | CC(C)n1nc([C@H]2CC[C@@H](C(F)(F)F)CC2)nc1[C@H]1[C@@H]2C[C@H](N3CCOC[C@H]3C)C[C@@H]21 (single isomer, unassigned) [Compound 166*]
